Assay results from the supplement of paper PMC11208160.

Assay: recombinant barcode read abundance after kanamycin selection (control-corrected) (log10(CPM+1)); higher = more efficient recombination; sequences stand for … in AGTGCAGAGAAAATCGGCCAGTTTTCTCTGCCTGCAGTCCGCATGCCGT…AGATTTATGCAGCGGACTGCCTTTCTCCCAAAGTGATAAACCGGACAGTATCATGGACCGGTTTTCCCGGTAATCCGTATTTGCAAGGTTGGTTTCACT; site = the 11-nt target
Summary of the method: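 Oligos holding a promoter, target, barcode and the J23119-driven first 104 bases of the bridge RNA were Gibson-cloned into a vector that supplied the other 73 bp plus a T7-inducible recombinase. This library was co-electroporated with a donor plasmid into E. coli. Two replicates went on chloramphenicol/ampicillin LB agar (control) and two on chloramphenicol/ampicillin/kanamycin with 0.1 mM IPTG. Recombination efficiency is read from averaged, control-corrected barcode counts per million at recombinant junctions, reported as log10(CPM+1).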
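Further: IS621 recombinase and bridge RNA in Escherichia coli cells.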

| Sequence | recombinant barcode read abundance (log10) |
| --- | --- |
| GCGCTTACTTGGGTTCTAACCTGTTGCCT (site GGGCTTACTAG) | 0.0205 |
| GCGCTTACTTGGGTTCTAACCTGTTGCCT (site GTGCTTACTAG) | 0.0591 |
| GCGGAAGCTTGGGTTCTAACCTGTTGCCT (site GAGGAAGCTAG) | 0.192 |
| GCGGAAGCTTGGGTTCTAACCTGTTGCCT (site GCGGAAGCTAG) | 0.312 |
| GCGGAAGCTTGGGTTCTAACCTGTTGCCT (site GGGGAAGCTAG) | 0.469 |
| GCGGAAGCTTGGGTTCTAACCTGTTGCCT (site GTGGAAGCTAG) | 0.181 |
| GCGGGGTCTTGGGTTCTAACCTGTTGCCT (site ACGGGGTCTAG) | 0.786 |
| GCGGGGTCTTGGGTTCTAACCTGTTGCCT (site CCGGGGTCTAG) | 0.627 |
| GCGGGGTCTTGGGTTCTAACCTGTTGCCT (site GCGGGGTCTAG) | 1.2 |
| GCGGGGTCTTGGGTTCTAACCTGTTGCCT (site TCGGGGTCTAG) | 0.231 |
| GCGGTATCTTGGGTTCTAACCTGTTGCCT (site GCGGTATCTAG) | 1.21 |
| GCGGTATCTTGGGTTCTAACCTGTTGCCT (site GGGGTATCTAG) | 0.105 |
| GCGGTGACTTGGGTTCTAACCTGTTGCCT (site ACGGTGACTAG) | 0.942 |
| GCGGTGACTTGGGTTCTAACCTGTTGCCT (site CCGGTGACTAG) | 0.172 |
| GCGGTGACTTGGGTTCTAACCTGTTGCCT (site GCGGTGACTAG) | 1.48 |
| GCGGTGACTTGGGTTCTAACCTGTTGCCT (site TCGGTGACTAG) | 0.074 |
| GCGTACCCTTGGGTTCTAACCTGTTGCCT (site GAGTACCCTAG) | 0.404 |
| GCGTACCCTTGGGTTCTAACCTGTTGCCT (site GCGTACCCTAG) | 1.41 |
| GCGTACCCTTGGGTTCTAACCTGTTGCCT (site GGGTACCCTAG) | 0.0245 |
| GCGTACCCTTGGGTTCTAACCTGTTGCCT (site GTGTACCCTAG) | 0.0662 |
| GCGTACTCTTGGGTTCTAACCTGTTGCCT (site GCGGACTCTTG) | 0.0368 |
| GCGTACTCTTGGGTTCTAACCTGTTGCCT (site GCGTACTCTAG) | 2.02 |
| GCGTCCACTTGGGTTCTAACCTGTTGCCT (site GCATCCACTAG) | 0.398 |
| GCGTCCACTTGGGTTCTAACCTGTTGCCT (site GCGTCCACTAG) | 0.0111 |
| GCGTGTACTTGGGTTCTAACCTGTTGCCT (site GCGGGTACTAG) | 0.208 |
| GCGTGTACTTGGGTTCTAACCTGTTGCCT (site GCGTGTACTAG) | 0.948 |

| Sequence | recombinant barcode read abundance (log10) |
| --- | --- |
| GCTAAGTCTTGGGTTCTAACCTGTTGCGT (site GCGGAGTCTAC) | 0.166 |
| GCTAAGTCTTGGGTTCTAACCTGTTGCGT (site GCTAAGTCTAC) | 2.61 |
| GCTAGTCCTTGGGTTCTAACCTGTTGCGT (site GCTAGTCCTAC) | 2.14 |
| GCTAGTCCTTGGGTTCTAACCTGTTGCGT (site GCTAGTCCTCA) | 0.0737 |
| GCTATGTCTTGGGTTCTAACCTGTTGCCT (site GCTATGTCTAG) | 1.42 |
| GCTATGTCTTGGGTTCTAACCTGTTGCCT (site GGTATGTCTAA) | 0.0851 |
| GCTCAGTCTTGGGTTCTAACCTGTTGCCT (site GCTCAGACTAG) | 0.00917 |
| GCTCAGTCTTGGGTTCTAACCTGTTGCCT (site GCTCAGCCTAG) | 0.645 |
| GCTCAGTCTTGGGTTCTAACCTGTTGCCT (site GCTCAGGCTAG) | 0.218 |
| GCTCAGTCTTGGGTTCTAACCTGTTGCCT (site GCTCAGTCTAG) | 1.78 |
| GCTCATGCTTGGGTTCTAACCTGTTGCCT (site GCTCATGCTAG) | 1.92 |
| GCTCATGCTTGGGTTCTAACCTGTTGCCT (site GCTCATTCTAG) | 0.132 |
| GCTCATTCTTGGGTTCTAACCTGTTGCCT (site GCTCATGCTAG) | 0 |
| GCTCATTCTTGGGTTCTAACCTGTTGCCT (site GCTCATTCTAG) | 0.557 |
| GCTCCATCTTGGGTTCTAACCTGTTGCCT (site GATCCATCTAG) | 0.0768 |
| GCTCCATCTTGGGTTCTAACCTGTTGCCT (site GCTCCATCTAG) | 0.941 |
| GCTCCATCTTGGGTTCTAACCTGTTGCCT (site GGTCCATCTAG) | 0.122 |
| GCTCCATCTTGGGTTCTAACCTGTTGCCT (site GTTCCATCTAG) | 0.291 |
| GCTCCTCCTTGGGTTCTAACCTGTTGCAT (site ATAGAGTCTCG) | 0.0486 |
| GCTCCTCCTTGGGTTCTAACCTGTTGCAT (site GCTCCTCCTAT) | 1.15 |
| GCTCGAACTTGGGTTCTAACCTGTTGCCT (site GCACGAACTAG) | 0.46 |
| GCTCGAACTTGGGTTCTAACCTGTTGCCT (site GCCCGAACTAG) | 0.138 |
| GCTCGAACTTGGGTTCTAACCTGTTGCCT (site GCGCGAACTAG) | 0.00752 |
| GCTCGAACTTGGGTTCTAACCTGTTGCCT (site GCTCGAACTAG) | 0.38 |
| GCTCGTGCTTGGGTTCTAACCTGTTGCCT (site GCACGTGCTAG) | 0.69 |
| GCTCGTGCTTGGGTTCTAACCTGTTGCCT (site GCCCGTGCTAG) | 0.278 |

| Sequence | recombinant barcode read abundance (log10) |
| --- | --- |
| GCTCGTGCTTGGGTTCTAACCTGTTGCCT (site GCGCGTGCTAG) | 0.238 |
| GCTCGTGCTTGGGTTCTAACCTGTTGCCT (site GCTCGTGCTAG) | 1.1 |
| GCTGAGGCTTGGGTTCTAACCTGTTGCCA (site CTCTGCTCTGA) | 0.165 |
| GCTGAGGCTTGGGTTCTAACCTGTTGCCA (site GCTGAGGCTTG) | 0.636 |
| GCTGAGTCTTGGGTTCTAACCTGTTGCTA (site AGGCCCACTAT) | 0.0625 |
| GCTGAGTCTTGGGTTCTAACCTGTTGCTA (site GCTGAGTCTTA) | 2.08 |
| GCTGCTCCTTGGGTTCTAACCTGTTGCGT (site GCGGGTCCTAC) | 0.0749 |
| GCTGCTCCTTGGGTTCTAACCTGTTGCGT (site GCTGCTCCTAC) | 1.82 |
| GCTGGGCCTTGGGTTCTAACCTGTTGCGA (site GATGGGCCTAC) | 0.0848 |
| GCTGGGCCTTGGGTTCTAACCTGTTGCGA (site GCTGGGCCTTC) | 2.17 |
| GCTGTATCTTGGGTTCTAACCTGTTGCCT (site ACTGTATCTAG) | 0.288 |
| GCTGTATCTTGGGTTCTAACCTGTTGCCT (site CCTGTATCTAG) | 0.163 |
| GCTGTATCTTGGGTTCTAACCTGTTGCCT (site GCTGTATCTAG) | 0.612 |
| GCTGTATCTTGGGTTCTAACCTGTTGCCT (site TCTGTATCTAG) | 0.0648 |
| GCTTCTTCTTGGGTTCTAACCTGTTGCCT (site GATTCTTCTAG) | 0.398 |
| GCTTCTTCTTGGGTTCTAACCTGTTGCCT (site GCTTCTTCTAG) | 0.0876 |
| GCTTCTTCTTGGGTTCTAACCTGTTGCCT (site GGTTCTTCTAG) | 0.0632 |
| GCTTCTTCTTGGGTTCTAACCTGTTGCCT (site GTTTCTTCTAG) | 0.0974 |
| GCTTGAGCTTGGGTTCTAACCTGTTGCCG (site CCTTGAGCTCA) | 0.0954 |
| GCTTGAGCTTGGGTTCTAACCTGTTGCCG (site GCTTGAGCTCG) | 0.344 |
| GCTTGAGCTTGGGTTCTAACCTGTTGCCT (site GCATGAGCTAG) | 0.421 |
| GCTTGAGCTTGGGTTCTAACCTGTTGCCT (site GCCTGAGCTAG) | 0.158 |
| GCTTGAGCTTGGGTTCTAACCTGTTGCCT (site GCGTGAGCTAG) | 0.139 |
| GCTTGAGCTTGGGTTCTAACCTGTTGCCT (site GCTTGAGCTAG) | 0.589 |
| GCTTGGACTTGGGTTCTAACCTGTTGCCT (site GCTTGGACTAG) | 0.467 |
